Source: patent publication US20230286973A1, “PROTEIN SECRETION INHIBITORS” (KEZAR LIFE SCIENCES, priority 2020, published 2023)

Columns and labels:
[1] = Liver Microsome Stability Assay (mouse); settings: mouse liver microsomes, with NADPH, 1.0 uM compound
Description: (§1) Stability of a compound was assessed in the presence of liver microsomes from various sources—mouse, rat, monkey and human liver microsomes. 1.0 uM compound, 0.4% DMSO in 0.1 M Potassium Phosphate with 1.0 mg/mL liver microsomes, were incubated at 37° C. with or without 1 mM NADPH. The samples were quenched at 0, and 30 minutes.

[2] = test system: TNFα-FL/Gaussia Luciferase; assay: Dox Induced TNFα-FL-Gluc Assay; type: cell-based; settings: for IC50: 24 hr Dox induction, 293FRT/TO cells, mean, read-out: 24 hr Dox Inducible TNFaFLGluc 293FRT/TO: Mean IC50; for 24 hr Dox Inducible TNFaFLGluc 293FRT/TO: TNF/PD1: ratio of TNFaFLGluc IC50 to PD1ssGluc IC50, '<=>' given where both are I.A.
Outline: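 Stereoisomer mixtures were tested where stereochemistry is not drawn. Induction used doxycycline added together with compound dilutions in DMSO/media to Flp-In 293 T-REx cells carrying a T-REx-regulated TNFα (aa 1-233)-Gaussia luciferase construct, then incubated at 37 °C, 5% CO2.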

[3] = test system: multiple myeloma cell line NCI-H929; assay: H929 Cell Viability Assay; type: cell-based, human; settings: Homo sapiens, NCI-H929, 48 h, NCI-H929 cells, Celltiter-Glo
Outline: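 Luminescent ATP detection (CellTiter-Glo) after 48 hours of compound exposure measures viability. Cells were plated in RPMI 1640 containing 10% fetal bovine serum and kept at 37° C under 5% CO2.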

[4] = Liver Microsome Stability Assay (monkey); settings: monkey liver microsomes, with NADPH, 1.0 uM compound
Description: as §1

[5] = test system: multiple myeloma cell line U266B1; assay: U266 Cell Viability Assay; type: cell-based, human; settings: Homo sapiens, U-266, 48 h, U266B1 cells, Celltiter-Glo
Outline: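 Steps: culture in RPMI 1640 plus 10% FBS and 2 mM glutamine; plate and add compound dilutions; incubate 48 hours at 37° C., 5% CO2; add CellTiter-Glo and quantify luciferase signal.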

[6] = Liver Microsome Stability Assay (rat); settings: rat liver microsomes, with NADPH, 1.0 uM compound
Description: as §1

[7] = test system: PD1-ss+10aa/Gaussia Luciferase; assay: Dox-Induced PD1-ss-Gluc Assay; type: cell-based; settings: 24 hr Dox induction; 293FRT/TO cells; mean; read-out: 24 hr Dox Inducible PD1ssGluc 293FRT/TO: Mean IC50
Outline: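 Doxycycline-induced expression of a PD1-ss+10aa/Gaussia luciferase reporter is measured in stable Flp-In 293 T-REx cells. Compound dilutions containing doxycycline are added one day after plating and incubated at 37 °C, 5% CO2. Values for unassigned stereocentres refer to stereoisomer mixtures.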

[8] = test system: IL-2-FL/Gaussia Luciferase; assay: Dox Induced IL2-FL-Gluc Assay; type: cell-based; settings: for IC50: 24 hr Dox induction, 293FRT/TO cells, mean, read-out: 24 hr Dox Inducible IL2FLGluc 293FRT/TO: Mean IC50; for 24 hr Dox Inducible IL2FLGluc 293FRT/TO: IL2/PD1: ratio of IL2FLGluc IC50 to PD1ssGluc IC50, '<=>' given where both are I.A.
Outline: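 Cells are plated one day ahead, then receive compound dilutions in DMSO/media with doxycycline and incubate at 37° C, 5% CO2. They are Flp-In 293 T-REx cells expressing a full-length IL-2 (amino acids 1-153)–Gaussia luciferase fusion under T-REx control.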

[9] = Liver Microsome Stability Assay (human); settings: human liver microsomes, with NADPH, 1.0 uM compound
Description: as §1

[10] = test system: HER3-ss+4aa/Gaussia Luciferase; assay: Dox-Induced Her3-ss-Gluc Assay; type: cell-based; settings: 24 hr Dox induction; 293FRT/TO cells; mean; read-out: 24 hr Dox Inducible Her3(ss + 4)Gluc 293FRT/TO: Mean IC50
Outline: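 Cells were seeded a day ahead, then given compound diluted in DMSO/media with doxycycline to induce expression of the HER3 signal sequence (+4 aa)–Gaussia luciferase fusion. Incubation was at 37° C., 5% CO2, in a stable Flp-In 293 T-REx line.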

| Compound | Liver Microsome Stability (Multiple Species): Mouse - % Remaining after 30 min w/NADPH [1] [%] | IC50 [2] [µM] | EC50 [3] [µM] | Liver Microsome Stability (Multiple Species): Monkey - % Remaining after 30 min w/NADPH [4] [%] | EC50 [5] [µM] | Liver Microsome Stability (Multiple Species): Rat - % Remaining after 30 min w/NADPH [6] [%] | IC50 [7] [µM] | IC50 [8] [µM] | Liver Microsome Stability (Multiple Species): Human - % Remaining after 30 min w/NADPH [9] [%] | IC50 [10] [µM] | 24 hr Dox Inducible TNFaFLGluc 293FRT/TO: TNF/PD1 [2] | 24 hr Dox Inducible IL2FLGluc 293FRT/TO: IL2/PD1 [8] |
| --- | --- | --- | --- | --- | --- | --- | --- | --- | --- | --- | --- | --- |
| N#CCCCCn1cccc1C(=O)Nc1nc([C@H]2CCCN2c2ccccc2)cs1 [Compound C1, (R)-1-(4-cyanobutyl)-N-(4-(1-phenylpyrrolidin-2-yl)thiazol-2-yl)-1H-pyrrole-2-carboxamide] | 23.2 | 10 | 24.1 | 0.35 | > 25 | 7.64 | 0.455 | 1.26 | 29.3 | 1.33 | 22.1 | 2.8 |
| N#CCCCn1cccc1C(=O)Nc1nc([C@H]2CCCN2c2ccccc2)cs1 [Compound C2, (R)-1-(3-cyanopropyl)-N-(4-(1-phenylpyrrolidin-2-yl)thiazol-2-yl)-1H-pyrrole-2-carboxamide] | 18 | 9.74 | > 25 | 0.23 | > 25 | 17.6 | 0.483 | 1.52 | 33.9 | 1.38 | 20.2 | 3.1 |
| O=C(Nc1nc([C@H]2CCCN2c2ccccc2)cs1)c1cccn1CCC1CCOC1 (stereo partly drawn) [Compound C3, N-(4-((R)-1-phenylpyrrolidin-2-yl)thiazol-2-yl)-1-(2-(tetrahydrofuran-3-yl)ethyl)-1H-pyrrole-2-carboxamide] | 9.29 | 15.1 | 16.3 | 8.3 | > 25 | 4.35 | 1.11 | 3.04 | 16 | 2.27 | 13.5 | 2.7 |
| O=C(Nc1nc([C@H]2CCCN2c2ccccc2)cs1)c1cccn1CCCCc1nnn[nH]1 [Compound C4, (R)-1-(4-(1H-tetrazol-5-yl)butyl)-N-(4-(1-phenylpyrrolidin-2-yl)thiazol-2-yl)-1H-pyrrole-2-carboxamide] | 49.1 | 16.5 | > 25 | 70.3 | > 25 | 62.1 | 0.782 | 1.94 | 96.7 | 1.54 | 21.1 | 2.5 |

Continued, in another order:

| Liver Microsome Stability (Multiple Species): Mouse - % Remaining after 30 min w/NADPH [1] [%] | IC50 [2] [µM] | EC50 [3] [µM] | Liver Microsome Stability (Multiple Species): Monkey - % Remaining after 30 min w/NADPH [4] [%] | EC50 [5] [µM] | Liver Microsome Stability (Multiple Species): Rat - % Remaining after 30 min w/NADPH [6] [%] | IC50 [7] [µM] | IC50 [8] [µM] | Liver Microsome Stability (Multiple Species): Human - % Remaining after 30 min w/NADPH [9] [%] | IC50 [10] [µM] | Compound | 24 hr Dox Inducible TNFaFLGluc 293FRT/TO: TNF/PD1 [2] | 24 hr Dox Inducible IL2FLGluc 293FRT/TO: IL2/PD1 [8] |
| --- | --- | --- | --- | --- | --- | --- | --- | --- | --- | --- | --- | --- |
| 11.3 | 18.8 | 8.45 | 0.16 | 9.48 | 8.66 | 0.0105 | 5.27 | 0.16 | 3.69 | Cc1c(/C=C/c2csc(NC(=O)c3cccn3Cc3ccnc(F)c3)n2)ncn1C(C)C [Compound B116, (E)-1-((2-fluoropyridin-4-yl)methyl)-N-(4-(2-(1-isopropyl-5-methyl-1H-imidazol-4-yl)vinyl)thiazol-2-yl)-1H-pyrrole-2-carboxamide] | 1780 | 500 |
| 15.8 | 23.6 | 16.9 | 0.22 | 21.2 | 4.95 | 0.0318 | > 25 | 0.29 | > 25 | CCn1cnc(/C=C/c2csc(NC(=O)c3cccn3Cc3ccnc(F)c3)n2)c1C [Compound B117, (E)-N-(4-(2-(1-ethyl-5-methyl-1H-imidazol-4-yl)vinyl)thiazol-2-yl)-1-((2-fluoropyridin-4-yl)methyl)-1H-pyrrole-2-carboxamide] | 743 | >790 |
| 40.4 | > 25 | > 25 | 0.21 | > 25 | 14.9 | 0.247 | > 25 | 0.37 | > 25 | Cc1c(/C=C/c2csc(NC(=O)c3cccn3Cc3ccnc(F)c3)n2)ncn1C(C)CO (stereo not drawn) [Compound B118, (E)-1-((2-fluoropyridin-4-yl)methyl)-N-(4-(2-(1-(1-hydroxypropan-2-yl)-5-methyl-1H-imidazol-4-yl)vinyl)thiazol-2-yl)-1H-pyrrole-2-carboxamide] | >101 | >100 |
| 2.37 | 21.3 | 13.1 | 0.1 | 15.6 | 0.7 | 0.0511 | 10.1 | 0.15 | 8.9 | CCOC(=O)C(C)n1cnc(/C=C/c2csc(NC(=O)c3cccn3Cc3ccnc(F)c3)n2)c1C (stereo not drawn) [Compound B119, ethyl (E)-2-(4-(2-(2-(1-((2-fluoropyridin-4-yl)methyl)-1H-pyrrole-2-carboxamido)thiazol-4-yl)vinyl)-5-methyl-1H-imidazol-1-yl)propanoate] | 418 | 200 |
| 6.6 | > 25 | > 25 | 0.15 | > 25 | 2.69 | 2.69 | > 25 | 0.24 | > 25 | COC(=O)Cn1cnc(/C=C/c2csc(NC(=O)c3cccn3Cc3ccnc(F)c3)n2)c1C [Compound B120, methyl (E)-2-(4-(2-(2-(1-((2-fluoropyridin-4-yl)methyl)-1H-pyrrole-2-carboxamido)thiazol-4-yl)vinyl)-5-methyl-1H-imidazol-1-yl)acetate] | >9.29 | >9.3 |
